According to patent publication US20080000489A1, “Method and preparation for binding aldehydes in saliva” (BIOHIT OYJ, priority 2000, published 2008):

Test: Salivary acetaldehyde in smokers sucking blinded L-cysteine tablets during cigarette smoking, gas chromatography
Assay type: in vivo, human
Details: for mean salivary acetaldehyde concentration immediately after smoking: five smokers, placebo 191.2±48.5 μM
Protocol: Five smokers (age 29±2.8) participated in the study, in which […] were smoked (wash-out periods between). During every cigarette smoking (in 5 min time) volunteers sucked blinded tablets containing placebo, 1.25 mg, 2.5 mg, 5 mg, 10 mg or 20 mg L-cysteine. Acetaldehyde was analysed from salivary samples gas chromatographically at 0, 5, 10, 20 min from the beginning of smoking.
The mean salivary acetaldehyde concentrations immediately after smoking were 191.2±48.5 μM, 0 μM, 0 μM, 0 μM with placebo, 5 mg, 10 mg and 20 mg L-cysteine tablets, respectively.

Structure (SMILES): N[C@@H](CS)C(=O)O [L-cysteine]
- amount of acetaldehyde compared to placebo (1.25 mg L-cysteine tablet): about to third compared to placebo
- mean salivary acetaldehyde concentration immediately after smoking (5 mg L-cysteine tablet sucked during 5 min smoking): 0 µM
- carcinogenic acetaldehyde in the saliva during smoking (5 mg of L-cysteine administered by melting-tablet): totally inactivates
- mean salivary acetaldehyde concentration immediately after smoking (10 mg L-cysteine tablet sucked during 5 min smoking): 0 µM
- mean salivary acetaldehyde concentration immediately after smoking (20 mg L-cysteine tablet sucked during 5 min smoking): 0 µM
- tobacco-originated acetaldehyde from the saliva (L-cysteine tablets 5 mg, 10 and 20 mg, FIG. 4): totally eradicated
